Assay results from patent US11458123B2 (Arvinas, Inc., priority 2016, dated 2022).

system: tau protein; assay: Tau protein in vitro degradation assay (Western blot, Tau-13 antibody); format: cell-based, human; conditions: SK-N-SH cells; 72 hours of incubation; tested at 300 nM, 100 nM, 33 nM and 11 nM; Western blot, Tau-13 antibody
In short: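 Tau degradation read by Tau-13 Western blot (detects all human tau forms) of SDS-PAGE-resolved lysates from SK-N-SH cells. Cells were plated at least 18 h before 72 h exposure to PROTACs at either 1000/300/100 nM or 300/100/33/11 nM.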

**Q.** With `O=C1CCC(N2C(=O)c3ccc(OCCCc4ccc(O[C@H]5C[C@H](Oc6ccc(-c7ccc8c(c7)[nH]c7ccncc78)cn6)C5)cn4)cc3C2=O)C(=O)N1` (stereo partly shown) [Compound 77, 5-(3-(5-((1r,3r)-3-((5-(5H-pyrido[4,3-b]indol-7-yl)pyridin-2-yl)oxy)cyclobutoxy)pyridin-2-yl)propoxy)-2-(2,6-dioxopiperidin-3-yl)isoindoline-1,3-dione] as the compound, how does the “Degradation activity* (highest amount of degradation observed at any dosage; tau protein remaining)” value read?
**A.** C (>80% tau protein remaining after 72 hours of incubation with the test compound)

**Q.** For `O=C1CCC(N2C(=O)c3ccc(OCCOCCOCCOCCOCCOc4ccc(-c5ccc6c7cnccc7n(CC(F)(F)F)c6c5)cn4)cc3C2=O)C(=O)N1` (stereo not shown) [Compound 88, 2-(2,6-dioxopiperidin-3-yl)-5-((14-((5-(5-(2,2,2-trifluoroethyl)-5H-pyrido[4,3-b]indol-7-yl)pyridin-2-yl)oxy)-3,6,9,12-tetraoxatetradecyl)oxy)isoindoline-1,3-dione], which “Degradation activity* (highest amount of degradation observed at any dosage; tau protein remaining)” value is on record?
**A.** A (≤50% tau protein remaining after 72 hours of incubation with the test compound)

**Q.** For `Cn1c2ccncc2c2ccc(-c3ccc(N4CCC(CN5CCN(c6ccc7c(c6)CN(C6CCC(=O)NC6=O)C7=O)CC5)CC4)nc3)cc21` (stereo not shown) [Compound 127, 3-(5-(4-((1-(5-(5-methyl-5H-pyrido[4,3-b]indol-7-yl)pyridin-2-yl)piperidin-4-yl)methyl)piperazin-1-yl)-1-oxoisoindolin-2-yl)piperidine-2,6-dione], which “Degradation activity* (highest amount of degradation observed at any dosage; tau protein remaining)” value is on record?
**A.** C (>80% tau protein remaining after 72 hours of incubation with the test compound)

**Q.** With `O=C1CCC(N2C(=O)c3ccc(OCCCc4ccc(N5CCN(CCCc6ccc(-c7ccc8c(c7)[nH]c7ccncc78)cn6)CC5)nc4)cc3C2=O)C(=O)N1` (stereo not shown) [Compound 55, 5-(3-(6-(4-(3-(5-(5H-pyrido[4,3-b]indol-7-yl)pyridin-2-yl)propyl)piperazin-1-yl)pyridin-3-yl)propoxy)-2-(2,6-dioxopiperidin-3-yl)isoindoline-1,3-dione] as the compound, how does the “Degradation activity* (highest amount of degradation observed at any dosage; tau protein remaining)” value read?
**A.** C (>80% tau protein remaining after 72 hours of incubation with the test compound)

**Q.** Which “Degradation activity* (highest amount of degradation observed at any dosage; tau protein remaining)” value does the source give for `Cn1c2ccncc2c2ccc(-c3ccc(O[C@H]4C[C@H](CN5CC6(CC(OCCCCOc7ccc8c(c7)C(=O)N(C7CCC(=O)NC7=O)C8=O)C6)C5)C4)nc3)cc21` (stereo partly shown) [Compound 135, 2-(2,6-dioxopiperidin-3-yl)-5-(4-((2-(((1r,3r)-3-((5-(5-methyl-5H-pyrido[4,3-b]indol-7-yl)pyridin-2-yl)oxy)cyclobutyl)methyl)-2-azaspiro[3.3]heptan-6-yl)oxy)butoxy)isoindoline-1,3-dione] here?
**A.** B (≤80% and >50% tau protein remaining after 72 hours of incubation with the test compound)

**Q.** With `O=C1CCC(N2C(=O)c3ccc(N4CCN(CCCO[C@H]5C[C@H](Oc6ccc(-c7ccc8c(c7)[nH]c7ccncc78)cn6)C5)CC4)cc3C2=O)C(=O)N1` (stereo partly shown) [Compound 60, 5-(4-(3-((1r,3r)-3-((5-(5H-pyrido[4,3-b]indol-7-yl)pyridin-2-yl)oxy)cyclobutoxy)propyl)piperazin-1-yl)-2-(2,6-dioxopiperidin-3-yl)isoindoline-1,3-dione] as the compound, how does the “Degradation activity* (highest amount of degradation observed at any dosage; tau protein remaining)” value read?
**A.** C (>80% tau protein remaining after 72 hours of incubation with the test compound)

**Q.** How did the “Degradation activity* (highest amount of degradation observed at any dosage; tau protein remaining)” value turn out when `Cn1c2ccncc2c2ccc(-c3ccc(OCCCCCOCCOC(CC4CCN(c5ccc6c(c5)C(=O)N(C5CCC(=O)NC5=O)C6=O)CC4)C(F)(F)F)nc3)cc21` (stereo not shown) [Compound 89, 2-(2,6-dioxopiperidin-3-yl)-5-(4-(3,3,3-trifluoro-2-(2-((5-((5-(5-methyl-5H-pyrido[4,3-b]indol-7-yl)pyridin-2-yl)oxy)pentyl)oxy)ethoxy)propyl)piperidin-1-yl)isoindoline-1,3-dione] was run?
**A.** C (>80% tau protein remaining after 72 hours of incubation with the test compound)

**Q.** How did the “Degradation activity* (highest amount of degradation observed at any dosage; tau protein remaining)” value turn out when `Cn1c2ccncc2c2ccc(-c3ccc(O[C@H]4C[C@@H](Oc5ccc(CCCOC6CN(c7ccc8c(c7)C(=O)N(C7CCC(=O)NC7=O)C8=O)C6)nc5)C4)nc3)cc21` (stereo partly shown) [Compound 160, 2-(2,6-dioxopiperidin-3-yl)-5-(3-(3-(5-((1 s,3s)-3-((5-(5-methyl-5H-pyrido[4,3-b]indol-7-yl)pyridin-2-yl)oxy)cyclobutoxy)pyridin-2-yl)propoxy)azetidin-1-yl)isoindoline-1,3-dione] was run?
**A.** B (≤80% and >50% tau protein remaining after 72 hours of incubation with the test compound)

**Q.** With `Cn1c2ccncc2c2ccc(-c3ccc(CCCOCCOCCOCCOCCOc4ccc5c(c4)C(=O)N(C4CCC(=O)NC4=O)C5=O)nc3)cc21` (stereo not shown) [Compound 74, 2-(2,6-dioxopiperidin-3-yl)-5-((15-(5-(5-methyl-5H-pyrido[4,3-b]indol-7-yl)pyridin-2-yl)-3,6,9,12-tetraoxapentadecyl)oxy)isoindoline-1,3-dione] as the compound, how does the “Degradation activity* (highest amount of degradation observed at any dosage; tau protein remaining)” value read?
**A.** A (≤50% tau protein remaining after 72 hours of incubation with the test compound)

same assay, conditions: SK-N-SH cells; 72 hours of incubation; tested at 1000 nM, 300 nM and 100 nM

**Q.** How did the “Activity* (highest amount of degradation observed at any dosage, as tau protein remaining)” value turn out when `O=C1CCC(N2C(=O)c3cccc(NCCOCCOCCOCC(=O)N4CCN(c5ccn6c(n5)nc5ccccc56)CC4)c3C2=O)C(=O)N1` (stereo not shown) [Compound 41, 4-((2-(2-(2-(2-(4-(benzo[4,5]imidazo[1,2-a]pyrimidin-2-yl)piperazin-1-yl)-2-oxoethoxy)ethoxy)ethoxy)ethyl)amino)-2-(2,6-dioxopiperidin-3-yl)isoindoline-1,3-dione] was run?
**A.** C (>80% tau protein remaining after 72 hours of incubation with the test compound)

**Q.** For `CN(C)c1ccc(-c2ccc3cc(OCC(O)COCCOCCOCCOCCNc4cccc5c4C(=O)N(C4CCC(=O)NC4=O)C5=O)ccc3n2)cc1` (stereo not shown) [Compound 45, 4-(15-(2-(4-(dimethylamino)phenyl)quinolin-6-yloxy)-14-hydroxy-3,6,9,12-tetraoxapentadecylamino)-2-(2,6-dioxopiperidin-3-yl)isoindoline-1,3-dione], which “Activity* (highest amount of degradation observed at any dosage, as tau protein remaining)” value is on record?
**A.** C (>80% tau protein remaining after 72 hours of incubation with the test compound)

**Q.** With `Cc1ncsc1-c1ccc(CNC(=O)[C@@H]2C[C@@H](O)CN2C(=O)[C@@H](NC(=O)COCCOCCOCCCOc2ccc3nc(-c4ccc(N(C)C)cc4)ccc3c2)C(C)(C)C)cc1` [Compound 8, (2S,4R)-1-((S)-2-(tert-butyl)-15-((2-(4-(dimethylamino)phenyl)quinolin-6-yl)oxy)-4-oxo-6,9,12-trioxa-3-azapentadecanoyl)-4-hydroxy-N-(4-(4-methylthiazol-5-yl)benzyl)pyrrolidine-2-carboxamide] as the compound, how does the “Activity* (highest amount of degradation observed at any dosage, as tau protein remaining)” value read?
**A.** C (>80% tau protein remaining after 72 hours of incubation with the test compound)

**Q.** For `Cc1ncsc1-c1ccc([C@H](C)NC(=O)[C@@H]2C[C@@H](O)CN2C(=O)[C@@H](NC(=O)COCCOCCOc2ccc3nc(-c4ccc(N(C)C)cc4)ccc3c2)C(C)(C)C)cc1` [Compound 28, (2S,4R)-1-((S)-2-(2-(2-(2-(2-(4-(dimethylamino)phenyl)quinolin-6-yloxy)ethoxy)ethoxy)acetamido)-3,3-dimethylbutanoyl)-4-hydroxy-N—((S)-1-(4-(4-methylthiazol-5-yl)phenyl)ethyl)pyrrolidine-2-carboxamide], which “Activity* (highest amount of degradation observed at any dosage, as tau protein remaining)” value is on record?
**A.** C (>80% tau protein remaining after 72 hours of incubation with the test compound)
